# Measured values reported in US11976072B2, “Diacylglycerol kinase modulating compounds” (priority 2021, dated 2024).
# Key:
# [1] = tested on: Jurkat NFκB-luciferase cells; assay: Jurkat NFκB-Luciferase Assay; assay type: cell-based; details: Homo sapiens; Jurkat NFκB-luciferase cells activated with anti-CD3 antibody (OKT3), 2.5 hrs at 37° C.; geometric mean; read-out: DGK NFKb Luciferase EC50
# Summary of the method: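 Jurkat NFκB-luciferase reporter cells at 1 million cells/ml in RPMI with 10% FBS were added to antibody-coated, compound-containing wells. Luciferase activity read by One-Glo Ex luminescence 7 minutes after reagent addition.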
# [2] = molecular target: human DGKα (Homo sapiens, UniProt P23743); assay: DGKα Biochemical Activity Assay (ADP-Glo); details: recombinant DGKα 1 nM, 100 μM ATP, 18:1 DAG/POPS/octylglucoside micelles, 1 hour at 25° C.; geometric mean; read-out: HTBS DGKa 1X ATP KM IC50;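 also: luminescent detection of ADP produced as DGKα phosphorylates DAG to phosphatidic acid, IC50 from four-parameter nonlinear curve fit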
# human DGKα, sequence (P23743 whole entry): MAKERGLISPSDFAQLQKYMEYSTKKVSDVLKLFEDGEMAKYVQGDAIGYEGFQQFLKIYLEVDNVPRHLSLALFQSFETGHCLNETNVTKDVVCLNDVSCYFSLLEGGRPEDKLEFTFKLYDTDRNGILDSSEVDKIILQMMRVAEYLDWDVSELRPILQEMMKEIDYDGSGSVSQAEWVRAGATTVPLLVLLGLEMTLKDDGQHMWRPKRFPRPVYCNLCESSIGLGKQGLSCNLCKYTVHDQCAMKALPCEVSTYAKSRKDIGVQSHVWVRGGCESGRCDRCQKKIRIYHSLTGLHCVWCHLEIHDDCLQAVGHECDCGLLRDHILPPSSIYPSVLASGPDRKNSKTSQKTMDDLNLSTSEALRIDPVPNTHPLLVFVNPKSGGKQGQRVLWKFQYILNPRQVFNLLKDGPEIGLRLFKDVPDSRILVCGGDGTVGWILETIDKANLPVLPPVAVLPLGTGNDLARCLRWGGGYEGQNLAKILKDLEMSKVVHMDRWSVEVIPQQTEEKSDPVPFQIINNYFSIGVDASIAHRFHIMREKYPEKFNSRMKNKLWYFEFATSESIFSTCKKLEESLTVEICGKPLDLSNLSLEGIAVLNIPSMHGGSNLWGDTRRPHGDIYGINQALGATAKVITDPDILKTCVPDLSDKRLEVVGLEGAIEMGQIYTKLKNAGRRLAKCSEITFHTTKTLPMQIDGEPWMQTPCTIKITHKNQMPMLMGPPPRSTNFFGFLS
# Description: Alternatively, the enzymatic activity of human DGKα was monitored in a biochemical assay in the presence or absence of compounds and using micelles containing 18:1 Diacylglycerol (DAG), 16:0-18:1 PS (POPS) and Octylglucoside as substrate. DGKα activity led to conversion of DAG and ATP to Phosphatidic Acid (PA) and ADP. Levels of ADP were monitored by bioluminescence using the ADP-Glo Kinase Assay (Promega) and were indicative of DGKα activity.
# Recombinant DGKα (Carna Biosciences) in assay buffer (5 μL in 50 mM MOPS [3-(N-morpholino) propanesulfonic acid], pH 7.2; 0.0025% Triton X-100; 1 mM dithiothreitol; 5 mM MgCl2, 200 μM ATP) was added to the compound-containing plate and was incubated for 15 minutes at 25° C. […] The reaction mixture was incubated at 25° C. for 1 hour. ADP-Glo Reagent (10 μL, 10 mM Mg added) provided by the kit was added to each well and incubated at 25° C. for 40 minutes. Then, 20 μL of Kinase Detection Reagent was added and incubated at 25° C. for 40 minutes. Luciferase activity of each well was measured via luminescence on an Envision plate reader (PerkinElmer).
# Least squares curve fittings were performed using a four-parameter variable slope nonlinear regression model. […] IC50 values from multiple experiments were averaged by geometric mean and the standard deviation was calculated.
EC50 [1] [nM],IC50 [2] [nM],SMILES
16,31.7,"Cc1cccc2c1c(N1CCOCc3c(C#CC(C)(C)C#N)cccc31)nc1nnc(C)n12 [Example 217, 4-(1-(1,6-dimethyl-[1,2,4]triazolo[4,3-a]quinazolin-5-yl)-1,2,3,5-tetrahydrobenzo[e][1,4]oxazepin-6-yl)-2,2-dimethylbut-3-ynenitrile]"
33.9,14.5,"Cc1nnc2nc(N3CCOCc4c(C#Cc5cnn(C)c5)cccc43)c3c(F)cccc3n12 [Example 218, 1-(6-fluoro-1-methyl-[1,2,4]triazolo[4,3-a]quinazolin-5-yl)-6-((1-methyl-1H-pyrazol-4-yl)ethynyl)-1,2,3,5-tetrahydrobenzo[e][1,4]oxazepine]"
1.3,11.2,COc1cncc(C#Cc2cccc3c2CCCN3c2nc3nnc(C)n3c3ccc(F)cc23)c1 [Example 219]
0.346,21.8,"Cc1nnc2nc(N3CCCc4c(C#Cc5cnc(C(F)(F)F)nc5)cccc43)c3c(F)cccc3n12 [Example 220, 6-fluoro-1-methyl-5-(5-((2-(trifluoromethyl)pyrimidin-5-yl)ethynyl)-3,4-dihydroquinolin-1(2H)-yl)-[1,2,4]triazolo[4,3-a]quinazoline]"
0.647,122,"CCCCCc1cc(C2(C#Cc3cccc4c3CCCN4c3nc4nnc(C)n4c4cccc(F)c34)CC2)no1 [Example 221, 3-(1-((1-(6-fluoro-1-methyl-[1,2,4]triazolo[4,3-a]quinazolin-5-yl)-1,2,3,4-tetrahydroquinolin-5-yl)ethynyl)cyclopropyl)-5-pentylisoxazole]"
0.718,6.29,"COc1ccc(C#Cc2cccc3c2COCCN3c2nc3nnc(C)n3c3cccc(F)c23)cn1 [Example 222, 1-(6-fluoro-1-methyl-[1,2,4]triazolo[4,3-a]quinazolin-5-yl)-6-((6-methoxypyridin-3-yl)ethynyl)-1,2,3,5-tetrahydrobenzo[e][1,4]oxazepine]"
9.21,40.7,"Cc1nnc2nc(N3CCCc4c(C#Cc5ccnn5C)cccc43)c3cc(F)ccc3n12 [Example 223, 7-fluoro-1-methyl-5-[5-[2-(2-methylpyrazol-3-yl)ethynyl]-3,4-dihydro-2H-quinolin-1-yl]-[1,2,4]triazolo[4,3-a]quinazoline]"
8.38,15.1,"Cc1nnc2nc(N3CCCc4c(C#Cc5ccn[nH]5)cccc43)c3cc(F)ccc3n12 [Example 224, 7-fluoro-1-methyl-5-[5-[2-(1H-pyrazol-5-yl)ethynyl]-3,4-dihydro-2H-quinolin-1-yl]-[1,2,4]triazolo[4,3-a]quinazoline]"
8.97,7.46,"Cc1nnc2nc(N3CCCc4c(C#Cc5cn[nH]c5)cccc43)c3cc(F)ccc3n12 [Example 225, 7-fluoro-1-methyl-5-[5-[2-(1H-pyrazol-4-yl)ethynyl]-3,4-dihydro-2H-quinolin-1-yl]-[1,2,4]triazolo[4,3-a]quinazoline]"
3.92,3.42,"Cc1nnc2nc(N3CCCc4c(C#Cc5cnn(C)c5)cccc43)c3c(F)c(F)ccc3n12 [Example 226, 6,7-difluoro-1-methyl-5-[5-[2-(1-methylpyrazol-4-yl)ethynyl]-3,4-dihydro-2H-quinolin-1-yl]-[1,2,4]triazolo[4,3-a]quinazoline]"
9.73,29.3,"Cc1nnc2nc(N(CC(F)F)c3cc(F)cc(C#Cc4cnn(C)c4)c3)c3c(F)c(F)ccc3n12 [Example 227, N-(2,2-difluoroethyl)-6,7-difluoro-N-[3-fluoro-5-[2-(1-methylpyrazol-4-yl)ethynyl]phenyl]-1-methyl-[1,2,4]triazolo[4,3-a]quinazolin-5-amine]"
0.319,17.8,"COc1ccc(C#Cc2cccc3c2CCCN3c2nc3nnc(C)n3c3ccc(F)cc23)cn1 [Example 228, 7-fluoro-5-[5-[2-(6-methoxy-3-pyridyl)ethynyl]-3,4-dihydro-2H-quinolin-1-yl]-1-methyl-[1,2,4]triazolo[4,3-a]quinazoline]"
1.04,16.7,"Cc1nnc2nc(N3CCCc4c(C#Cc5ccnc(C#N)c5)cccc43)c3cc(F)ccc3n12 [Example 229, 4-[2-[1-(7-fluoro-1-methyl-[1,2,4]triazolo[4,3-a]quinazolin-5-yl)-3,4-dihydro-2H-quinolin-5-yl]ethynyl]pyridine-2-carbonitrile]"
4.06,7.64,"Cc1nc(C#Cc2cccc3c2CCCN3c2nc3nnc(C)n3c3ccc(F)cc23)cs1 [Example 231, 4-[2-[1-(7-fluoro-1-methyl-[1,2,4]triazolo[4,3-a]quinazolin-5-yl)-3,4-dihydro-2H-quinolin-5-yl]ethynyl]-2-methyl-thiazole]"
9.24,12.4,"Cc1nnc2nc(N3CCCc4c(C#Cc5cncn5C)cccc43)c3cc(F)ccc3n12 [Example 232, 7-fluoro-1-methyl-5-[5-[2-(3-methylimidazol-4-yl)ethynyl]-3,4-dihydro-2H-quinolin-1-yl]-[1,2,4]triazolo[4,3-a]quinazoline]"
2.15,6.74,"Cc1nnc2nc(N3CCCc4c(C#Cc5cnn(C)c5)cccc43)c3c(F)cccc3n12 [Example 233, 6-fluoro-1-methyl-5-[5-[2-(1-methylpyrazol-4-yl)ethynyl]-3,4-dihydro-2H-quinolin-1-yl]-[1,2,4]triazolo[4,3-a]quinazoline]"
23.3,3.86,"Cc1nnc2nc(N3CCCc4c(C#CC5(CO)CC5)cccc43)c3cc(F)ccc3n12 [Example 234, [1-[2-[1-(7-fluoro-1-methyl-[1,2,4]triazolo[4,3-a]quinazolin-5-yl)-3,4-dihydro-2H-quinolin-5-yl]ethynyl]cyclopropyl]methanol]"
8.26,6.85,"Cc1nnc2nc(N3CCCc4c(C#CC(C)(C)CO)cccc43)c3cc(F)ccc3n12 [Example 235, 4-[1-(7-fluoro-1-methyl-[1,2,4]triazolo[4,3-a]quinazolin-5-yl)-3,4-dihydro-2H-quinolin-5-yl]-2,2-dimethyl-but-3-yn-1-ol]"
2.52,3.65,"Cc1nnc2nc(N3CCCc4c(C#Cc5cnn(C)c5)cccc43)c3cc(F)ccc3n12 [Example 236, 7-fluoro-1-methyl-5-[5-[2-(1-methylpyrazol-4-yl)ethynyl]-3,4-dihydro-2H-quinolin-1-yl]-[1,2,4]triazolo[4,3-a]quinazoline]"
1.26,8.31,"Cc1nnc2nc(N(CC(F)F)c3cc(F)cc(C#CC4CC(F)(F)C4)c3)c3c(F)c(F)ccc3n12 [Example 237, N-[3-[2-(3,3-difluorocyclobutyl)ethynyl]-5-fluoro-phenyl]-N-(2,2-difluoroethyl)-6,7-difluoro-1-methyl-[1,2,4]triazolo[4,3-a]quinazolin-5-amine]"
24.5,7.08,"Cc1nnc2nc(N(CC(F)F)c3cc(F)cc(C#CC4(O)CCC4)c3)c3c(F)c(F)ccc3n12 [Example 238, 1-[2-[3-[2,2-difluoroethyl-(6,7-difluoro-1-methyl-[1,2,4]triazolo[4,3-a]quinazolin-5-yl)amino]-5-fluoro-phenyl]ethynyl]cyclobutanol]"
31.6,24.8,"CCC(O)C#Cc1cc(F)cc(N(CC(F)F)c2nc3nnc(C)n3c3ccc(F)c(F)c23)c1 (stereo not shown) [Example 239, 1-[3-[2,2-difluoroethyl-(6,7-difluoro-1-methyl-[1,2,4]triazolo[4,3-a]quinazolin-5-yl)amino]-5-fluoro-phenyl]pent-1-yn-3-ol]"
3.41,7.05,"Cc1nnc2nc(N3CCCc4c(C#CC(C)(C)C#N)cccc43)c3c(F)c(F)ccc3n12 [Example 240, 4-[1-(6,7-difluoro-1-methyl-[1,2,4]triazolo[4,3-a]quinazolin-5-yl)-3,4-dihydro-2H-quinolin-5-yl]-2,2-dimethyl-but-3-ynenitrile]"
29.5,38.6,"CCC(C)(O)C#Cc1cc(F)cc(N(CC(F)F)c2nc3nnc(C)n3c3ccc(F)c(F)c23)c1 (stereo not shown) [Example 241, 1-[3-[2,2-difluoroethyl-(6,7-difluoro-1-methyl-[1,2,4]triazolo[4,3-a]quinazolin-5-yl)amino]-5-fluoro-phenyl]-3-methyl-pent-1-yn-3-ol]"
1.94,3.75,"CC(C)(C#N)C#Cc1cccc2c1CCCN2c1nc2nncn2c2ccc(F)c(F)c12 [Example 242, 4-[1-(6,7-difluoro-[1,2,4]triazolo[4,3-a]quinazolin-5-yl)-3,4-dihydro-2H-quinolin-5-yl]-2,2-dimethyl-but-3-ynenitrile]"
2.33,3.14,"CC(C)(C#N)C#Cc1cccc2c1CCCN2c1nc2nncn2c2cccc(F)c12 [Example 243, 4-[1-(6-fluoro-[1,2,4]triazolo[4,3-a]quinazolin-5-yl)-3,4-dihydro-2H-quinolin-5-yl]-2,2-dimethyl-but-3-ynenitrile]"
3.24,10.2,"Cc1nnc2nc(N3CCCc4c(C#CC(C)(C)C#N)cccc43)c3cc(F)ccc3n12 [Example 244, 4-[1-(7-fluoro-1-methyl-[1,2,4]triazolo[4,3-a]quinazolin-5-yl)-3,4-dihydro-2H-quinolin-5-yl]-2,2-dimethyl-but-3-ynenitrile]"
6.75,21.2,"Cc1nnc2nc(N(CC(F)F)c3cc(F)cc(C#CC(C)(C)C#N)c3)c3cc(F)ccc3n12 [Example 245, 4-[3-[2,2-difluoroethyl-(7-fluoro-1-methyl-[1,2,4]triazolo[4,3-a]quinazolin-5-yl)amino]-5-fluoro-phenyl]-2,2-dimethyl-but-3-ynenitrile]"
0.272,39.3,"Cc1nnc2nc(N3CCCc4c(C#CC5CCC5)cccc43)c3c(F)cccc3n12 [Example 246, 5-[5-(2-cyclobutylethynyl)-3,4-dihydro-2H-quinolin-1-yl]-6-fluoro-1-methyl-[1,2,4]triazolo[4,3-a]quinazoline]"
